According to patent publication US11566022B2, “3-(5-methoxy-1-oxoisoindolin-2-yl)piperidine-2,6-dione derivatives and uses thereof” (NOVARTIS AG, priority 2019, dated 2023):

Biological target: HiBit-WIZ fusion protein (Homo sapiens, UniProt O95785+Q96SW2)
Test: Quantification of WIZ protein levels in HiBit tag fusion protein assay (WIZ HiBit assay in 293T cells)
Format: cell-based
Set-up: Dmax: dose or concentration left out as unconfirmed
Conditions: HEK-293T, 100 minus Amax; 293T cells; read-out: % degradation of WIZ (100-Amax)

Chain of HiBit-WIZ fusion protein (O95785 whole entry, the tested form may be a part): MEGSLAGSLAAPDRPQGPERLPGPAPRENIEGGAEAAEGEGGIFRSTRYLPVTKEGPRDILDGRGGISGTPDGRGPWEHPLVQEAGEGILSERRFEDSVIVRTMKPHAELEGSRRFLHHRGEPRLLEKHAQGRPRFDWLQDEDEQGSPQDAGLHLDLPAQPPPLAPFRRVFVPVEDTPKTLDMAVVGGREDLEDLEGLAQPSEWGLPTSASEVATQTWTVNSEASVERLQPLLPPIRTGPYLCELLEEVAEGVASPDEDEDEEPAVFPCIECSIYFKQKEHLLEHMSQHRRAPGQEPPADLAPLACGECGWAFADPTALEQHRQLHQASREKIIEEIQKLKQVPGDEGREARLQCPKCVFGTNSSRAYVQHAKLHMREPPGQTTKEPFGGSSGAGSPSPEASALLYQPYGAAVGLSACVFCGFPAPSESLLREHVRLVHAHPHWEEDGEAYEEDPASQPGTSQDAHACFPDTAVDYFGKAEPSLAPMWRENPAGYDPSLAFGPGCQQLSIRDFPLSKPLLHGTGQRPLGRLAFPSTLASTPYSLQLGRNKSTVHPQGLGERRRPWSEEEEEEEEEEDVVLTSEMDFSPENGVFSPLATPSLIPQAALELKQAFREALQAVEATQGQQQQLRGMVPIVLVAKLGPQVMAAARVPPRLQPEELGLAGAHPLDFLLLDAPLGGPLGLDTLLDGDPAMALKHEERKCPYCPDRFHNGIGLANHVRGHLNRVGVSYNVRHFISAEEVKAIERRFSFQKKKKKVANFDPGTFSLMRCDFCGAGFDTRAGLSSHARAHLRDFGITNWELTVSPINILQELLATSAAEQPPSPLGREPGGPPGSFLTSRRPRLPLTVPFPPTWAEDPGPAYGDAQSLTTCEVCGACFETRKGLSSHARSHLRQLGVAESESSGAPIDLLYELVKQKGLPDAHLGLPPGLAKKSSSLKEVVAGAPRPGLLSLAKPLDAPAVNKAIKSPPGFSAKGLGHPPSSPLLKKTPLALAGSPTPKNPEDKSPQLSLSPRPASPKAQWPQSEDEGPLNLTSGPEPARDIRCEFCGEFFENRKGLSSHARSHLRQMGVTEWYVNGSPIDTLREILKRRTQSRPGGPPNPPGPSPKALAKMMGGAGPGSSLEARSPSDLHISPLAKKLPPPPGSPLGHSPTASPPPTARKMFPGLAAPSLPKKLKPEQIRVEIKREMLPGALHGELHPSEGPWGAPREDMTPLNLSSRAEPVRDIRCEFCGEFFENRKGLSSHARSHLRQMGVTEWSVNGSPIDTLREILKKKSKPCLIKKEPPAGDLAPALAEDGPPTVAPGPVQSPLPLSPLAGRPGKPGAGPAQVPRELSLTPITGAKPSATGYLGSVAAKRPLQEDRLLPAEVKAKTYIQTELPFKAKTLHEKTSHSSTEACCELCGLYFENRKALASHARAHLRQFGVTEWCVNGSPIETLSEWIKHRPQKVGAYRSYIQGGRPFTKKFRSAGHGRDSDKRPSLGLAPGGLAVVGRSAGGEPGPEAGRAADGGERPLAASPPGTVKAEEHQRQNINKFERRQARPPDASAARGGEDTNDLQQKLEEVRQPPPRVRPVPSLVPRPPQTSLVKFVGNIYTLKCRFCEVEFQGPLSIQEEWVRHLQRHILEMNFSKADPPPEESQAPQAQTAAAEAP
Chain of HiBit-WIZ fusion protein (Q96SW2 whole entry, the tested form may be a part): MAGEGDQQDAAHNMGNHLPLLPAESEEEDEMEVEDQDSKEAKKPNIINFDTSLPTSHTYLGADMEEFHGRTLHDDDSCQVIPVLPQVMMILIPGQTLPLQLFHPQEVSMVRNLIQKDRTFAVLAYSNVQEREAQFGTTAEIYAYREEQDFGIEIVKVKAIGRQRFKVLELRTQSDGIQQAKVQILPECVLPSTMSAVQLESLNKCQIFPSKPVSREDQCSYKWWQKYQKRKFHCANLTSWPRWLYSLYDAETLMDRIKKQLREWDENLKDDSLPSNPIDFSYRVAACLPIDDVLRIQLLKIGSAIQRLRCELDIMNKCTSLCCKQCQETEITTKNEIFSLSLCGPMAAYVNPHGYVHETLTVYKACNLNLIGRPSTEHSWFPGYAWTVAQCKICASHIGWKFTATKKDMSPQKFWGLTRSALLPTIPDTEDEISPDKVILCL
Chain of HiBit-WIZ fusion protein (Q16531 whole entry partner, the tested form may be a part): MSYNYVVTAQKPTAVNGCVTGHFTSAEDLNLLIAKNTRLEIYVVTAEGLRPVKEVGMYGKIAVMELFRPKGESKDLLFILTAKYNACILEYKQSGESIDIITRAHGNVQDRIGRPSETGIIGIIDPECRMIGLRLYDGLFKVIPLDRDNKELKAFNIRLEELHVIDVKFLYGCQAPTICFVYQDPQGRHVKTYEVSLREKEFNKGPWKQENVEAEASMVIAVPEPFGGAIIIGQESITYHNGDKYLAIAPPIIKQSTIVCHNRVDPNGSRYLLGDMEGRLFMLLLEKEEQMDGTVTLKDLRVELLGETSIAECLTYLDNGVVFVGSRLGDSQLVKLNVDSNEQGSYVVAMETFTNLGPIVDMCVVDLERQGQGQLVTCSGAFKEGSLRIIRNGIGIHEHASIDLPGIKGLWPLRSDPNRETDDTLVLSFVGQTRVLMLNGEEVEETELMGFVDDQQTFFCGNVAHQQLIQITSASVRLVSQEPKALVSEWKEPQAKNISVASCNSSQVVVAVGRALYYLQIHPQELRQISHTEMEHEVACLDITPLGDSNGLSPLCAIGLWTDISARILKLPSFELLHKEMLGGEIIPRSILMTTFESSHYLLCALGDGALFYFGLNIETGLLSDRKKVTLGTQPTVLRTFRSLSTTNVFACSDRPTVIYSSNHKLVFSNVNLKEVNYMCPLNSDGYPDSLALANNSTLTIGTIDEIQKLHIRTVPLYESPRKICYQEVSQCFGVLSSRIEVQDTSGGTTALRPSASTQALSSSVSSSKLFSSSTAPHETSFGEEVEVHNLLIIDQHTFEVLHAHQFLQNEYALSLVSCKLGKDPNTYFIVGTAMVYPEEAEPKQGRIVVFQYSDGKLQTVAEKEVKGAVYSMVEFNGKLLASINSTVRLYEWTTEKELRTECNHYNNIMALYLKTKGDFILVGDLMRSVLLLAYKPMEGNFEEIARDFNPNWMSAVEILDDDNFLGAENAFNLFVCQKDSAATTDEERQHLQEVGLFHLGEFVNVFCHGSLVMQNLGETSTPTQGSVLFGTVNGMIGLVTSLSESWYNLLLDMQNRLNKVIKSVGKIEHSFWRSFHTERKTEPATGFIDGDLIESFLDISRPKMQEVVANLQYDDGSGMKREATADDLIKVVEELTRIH

SMILES	Dmax [%]
O=C1CCC(N2Cc3cc(OC[C@@H]4CCCCN4Cc4ccnc5[nH]ccc45)ccc3C2=O)C(=O)N1 (stereo partly drawn) [Compound I-50cx]	92.6
CCc1nc(C)c(CN2CCCC[C@H]2COc2ccc3c(c2)CN(C2CCC(=O)NC2=O)C3=O)[nH]1 (stereo partly drawn) [Compound I-50cy]	89
COC(=O)[C@@H]1CC[C@H](CN2CCCC[C@H]2COc2ccc3c(c2)CN(C2CCC(=O)NC2=O)C3=O)C1 (stereo partly drawn) [Compound I-50cz]	49.8
COc1ccccc1CN1CCCC[C@H]1COc1ccc2c(c1)CN(C1CCC(=O)NC1=O)C2=O (stereo partly drawn) [Compound I-50d]	78.3
O=C(O)Cn1cnc(CN2CCCC[C@@H]2COc2ccc3c(c2)CN(C2CCC(=O)NC2=O)C3=O)c1 (stereo partly drawn) [Compound I-50da]	65.1
COC(=O)c1nn(-c2cccc(C(F)(F)F)c2)cc1CN1CCCC[C@@H]1COc1ccc2c(c1)CN(C1CCC(=O)NC1=O)C2=O (stereo partly drawn) [Compound I-50dc]	39.8
O=C1CCC(N2Cc3cc(OC[C@H]4CCCCN4Cc4ccccc4Cn4cncn4)ccc3C2=O)C(=O)N1 (stereo partly drawn) [Compound I-50dd]	39.6
Cn1cncc1CN1CCCC[C@@H]1COc1ccc2c(c1)CN(C1CCC(=O)NC1=O)C2=O (stereo partly drawn) [Compound I-50df]	55.9
O=C1CCC(N2Cc3cc(OC[C@@H]4CCCCN4Cc4ncccc4O)ccc3C2=O)C(=O)N1 (stereo partly drawn) [Compound I-50dg]	16.1
CCc1nc(C)c(CN2CCCC[C@@H]2COc2ccc3c(c2)CN(C2CCC(=O)NC2=O)C3=O)[nH]1 (stereo partly drawn) [Compound I-50dh]	66.9
CN(C)Cc1ncc(-c2ccc(Oc3cc(Cl)cnc3CN3CCCC[C@@H]3COc3ccc4c(c3)CN(C3CCC(=O)NC3=O)C4=O)cc2)n1C (stereo partly drawn) [Compound I-50di]	79
Cc1cccc(-c2n[nH]cc2CN2CCCC[C@@H]2COc2ccc3c(c2)CN(C2CCC(=O)NC2=O)C3=O)c1 (stereo partly drawn) [Compound I-50dj]	99.7
O=C1CCC(N2Cc3cc(OC[C@H]4CCCCN4Cc4ccnc5[nH]ccc45)ccc3C2=O)C(=O)N1 (stereo partly drawn) [Compound I-50dk]	87
Cn1nc(CN2CCCC[C@@H]2COc2ccc3c(c2)CN(C2CCC(=O)NC2=O)C3=O)cc1-c1ccccc1 (stereo partly drawn) [Compound I-50dm]	100
N#Cc1cc(CN2CCCC[C@@H]2COc2ccc3c(c2)CN(C2CCC(=O)NC2=O)C3=O)ccn1 (stereo partly drawn) [Compound I-50dn]	21.2
O=C1CCC(N2Cc3cc(OC[C@H]4CCCCN4Cc4cccc(N5CCCC5)c4)ccc3C2=O)C(=O)N1 (stereo partly drawn) [Compound I-50do]	99.9
O=C1CCC(N2Cc3cc(OC[C@H]4CCCCN4Cc4ccc[nH]c4=O)ccc3C2=O)C(=O)N1 (stereo partly drawn) [Compound I-50dp]	65.5
O=C1CCC(N2Cc3cc(OC[C@H]4CCCCN4Cc4ccccc4OCC(=O)N4CCCCC4)ccc3C2=O)C(=O)N1 (stereo partly drawn) [Compound I-50dq]	71.2
O=C1CCC(N2Cc3cc(OC[C@H]4CCCCN4Cc4ccnc(N5CCOCC5)c4)ccc3C2=O)C(=O)N1 (stereo partly drawn) [Compound I-50dr]	85.5
O=C1CCC(N2Cc3cc(OC[C@H]4CCCCN4Cc4c[nH]cn4)ccc3C2=O)C(=O)N1 (stereo partly drawn) [Compound I-50ds]	70.8
N#Cc1ccn2cc(CN3CCCC[C@@H]3COc3ccc4c(c3)CN(C3CCC(=O)NC3=O)C4=O)nc2c1 (stereo partly drawn) [Compound I-50dt]	67
Cc1nc(-c2cccc(CN3CCCC[C@@H]3COc3ccc4c(c3)CN(C3CCC(=O)NC3=O)C4=O)c2)no1 (stereo partly drawn) [Compound I-50du]	78.4

Same assay, conditions: HEK-293T, DMSO-normalized, curve-fitted percentage of WIZ-HiBit remaining at 25 uM; 293T cells; read-out: WIZ Amax

SMILES	remaining activity at up to 25 µM [%]
O=C1CCC(N2Cc3cc(OC[C@@H]4CCCCN4Cc4ccnc5[nH]ccc45)ccc3C2=O)C(=O)N1 (stereo partly drawn) [Compound I-50cx]	7.4
CCc1nc(C)c(CN2CCCC[C@H]2COc2ccc3c(c2)CN(C2CCC(=O)NC2=O)C3=O)[nH]1 (stereo partly drawn) [Compound I-50cy]	11
COC(=O)[C@@H]1CC[C@H](CN2CCCC[C@H]2COc2ccc3c(c2)CN(C2CCC(=O)NC2=O)C3=O)C1 (stereo partly drawn) [Compound I-50cz]	50.2
COc1ccccc1CN1CCCC[C@H]1COc1ccc2c(c1)CN(C1CCC(=O)NC1=O)C2=O (stereo partly drawn) [Compound I-50d]	21.7
O=C(O)Cn1cnc(CN2CCCC[C@@H]2COc2ccc3c(c2)CN(C2CCC(=O)NC2=O)C3=O)c1 (stereo partly drawn) [Compound I-50da]	34.9
COC(=O)c1nn(-c2cccc(C(F)(F)F)c2)cc1CN1CCCC[C@@H]1COc1ccc2c(c1)CN(C1CCC(=O)NC1=O)C2=O (stereo partly drawn) [Compound I-50dc]	60.2
O=C1CCC(N2Cc3cc(OC[C@H]4CCCCN4Cc4ccccc4Cn4cncn4)ccc3C2=O)C(=O)N1 (stereo partly drawn) [Compound I-50dd]	60.4
Cn1cncc1CN1CCCC[C@@H]1COc1ccc2c(c1)CN(C1CCC(=O)NC1=O)C2=O (stereo partly drawn) [Compound I-50df]	44.1
O=C1CCC(N2Cc3cc(OC[C@@H]4CCCCN4Cc4ncccc4O)ccc3C2=O)C(=O)N1 (stereo partly drawn) [Compound I-50dg]	83.9
CCc1nc(C)c(CN2CCCC[C@@H]2COc2ccc3c(c2)CN(C2CCC(=O)NC2=O)C3=O)[nH]1 (stereo partly drawn) [Compound I-50dh]	33.1
CN(C)Cc1ncc(-c2ccc(Oc3cc(Cl)cnc3CN3CCCC[C@@H]3COc3ccc4c(c3)CN(C3CCC(=O)NC3=O)C4=O)cc2)n1C (stereo partly drawn) [Compound I-50di]	21
Cc1cccc(-c2n[nH]cc2CN2CCCC[C@@H]2COc2ccc3c(c2)CN(C2CCC(=O)NC2=O)C3=O)c1 (stereo partly drawn) [Compound I-50dj]	0.3
O=C1CCC(N2Cc3cc(OC[C@H]4CCCCN4Cc4ccnc5[nH]ccc45)ccc3C2=O)C(=O)N1 (stereo partly drawn) [Compound I-50dk]	13
Cn1nc(CN2CCCC[C@@H]2COc2ccc3c(c2)CN(C2CCC(=O)NC2=O)C3=O)cc1-c1ccccc1 (stereo partly drawn) [Compound I-50dm]	0
N#Cc1cc(CN2CCCC[C@@H]2COc2ccc3c(c2)CN(C2CCC(=O)NC2=O)C3=O)ccn1 (stereo partly drawn) [Compound I-50dn]	78.8
O=C1CCC(N2Cc3cc(OC[C@H]4CCCCN4Cc4cccc(N5CCCC5)c4)ccc3C2=O)C(=O)N1 (stereo partly drawn) [Compound I-50do]	0.1
O=C1CCC(N2Cc3cc(OC[C@H]4CCCCN4Cc4ccc[nH]c4=O)ccc3C2=O)C(=O)N1 (stereo partly drawn) [Compound I-50dp]	34.5
O=C1CCC(N2Cc3cc(OC[C@H]4CCCCN4Cc4ccccc4OCC(=O)N4CCCCC4)ccc3C2=O)C(=O)N1 (stereo partly drawn) [Compound I-50dq]	28.8
O=C1CCC(N2Cc3cc(OC[C@H]4CCCCN4Cc4ccnc(N5CCOCC5)c4)ccc3C2=O)C(=O)N1 (stereo partly drawn) [Compound I-50dr]	14.5
O=C1CCC(N2Cc3cc(OC[C@H]4CCCCN4Cc4c[nH]cn4)ccc3C2=O)C(=O)N1 (stereo partly drawn) [Compound I-50ds]	29.2
N#Cc1ccn2cc(CN3CCCC[C@@H]3COc3ccc4c(c3)CN(C3CCC(=O)NC3=O)C4=O)nc2c1 (stereo partly drawn) [Compound I-50dt]	33
Cc1nc(-c2cccc(CN3CCCC[C@@H]3COc3ccc4c(c3)CN(C3CCC(=O)NC3=O)C4=O)c2)no1 (stereo partly drawn) [Compound I-50du]	21.6

Same assay, conditions: HEK-293T, read-out: % degradation of WIZ (100-Amax)

SMILES	Dmax [%]
NS(=O)(=O)c1ccc(CN2CCCC[C@H]2COc2ccc3c(c2)CN(C2CCC(=O)NC2=O)C3=O)cc1 (stereo partly drawn) [Compound I-50de]	58.5

Same assay, conditions: HEK-293T, read-out: WIZ Amax

SMILES	remaining activity [%]
NS(=O)(=O)c1ccc(CN2CCCC[C@H]2COc2ccc3c(c2)CN(C2CCC(=O)NC2=O)C3=O)cc1 (stereo partly drawn) [Compound I-50de]	41.5

Same assay, conditions: WIZ HiBit assay in 293T cells; 10-point, 5-fold dose response, highest concentration 25 μM, about 18 hours; read-out: WIZ AC50

SMILES	DC50 [nM]
O=C1CCC(N2Cc3cc(OC[C@@H]4CCCCN4Cc4ccnc5[nH]ccc45)ccc3C2=O)C(=O)N1 (stereo partly drawn) [Compound I-50cx]	143
CCc1nc(C)c(CN2CCCC[C@H]2COc2ccc3c(c2)CN(C2CCC(=O)NC2=O)C3=O)[nH]1 (stereo partly drawn) [Compound I-50cy]	922
COC(=O)[C@@H]1CC[C@H](CN2CCCC[C@H]2COc2ccc3c(c2)CN(C2CCC(=O)NC2=O)C3=O)C1 (stereo partly drawn) [Compound I-50cz]	> 25000
COc1ccccc1CN1CCCC[C@H]1COc1ccc2c(c1)CN(C1CCC(=O)NC1=O)C2=O (stereo partly drawn) [Compound I-50d]	784
O=C(O)Cn1cnc(CN2CCCC[C@@H]2COc2ccc3c(c2)CN(C2CCC(=O)NC2=O)C3=O)c1 (stereo partly drawn) [Compound I-50da]	5130
COC(=O)c1nn(-c2cccc(C(F)(F)F)c2)cc1CN1CCCC[C@@H]1COc1ccc2c(c1)CN(C1CCC(=O)NC1=O)C2=O (stereo partly drawn) [Compound I-50dc]	> 25000
O=C1CCC(N2Cc3cc(OC[C@H]4CCCCN4Cc4ccccc4Cn4cncn4)ccc3C2=O)C(=O)N1 (stereo partly drawn) [Compound I-50dd]	> 25000
Cn1cncc1CN1CCCC[C@@H]1COc1ccc2c(c1)CN(C1CCC(=O)NC1=O)C2=O (stereo partly drawn) [Compound I-50df]	11100
O=C1CCC(N2Cc3cc(OC[C@@H]4CCCCN4Cc4ncccc4O)ccc3C2=O)C(=O)N1 (stereo partly drawn) [Compound I-50dg]	> 25000
CCc1nc(C)c(CN2CCCC[C@@H]2COc2ccc3c(c2)CN(C2CCC(=O)NC2=O)C3=O)[nH]1 (stereo partly drawn) [Compound I-50dh]	6530
CN(C)Cc1ncc(-c2ccc(Oc3cc(Cl)cnc3CN3CCCC[C@@H]3COc3ccc4c(c3)CN(C3CCC(=O)NC3=O)C4=O)cc2)n1C (stereo partly drawn) [Compound I-50di]	1180
Cc1cccc(-c2n[nH]cc2CN2CCCC[C@@H]2COc2ccc3c(c2)CN(C2CCC(=O)NC2=O)C3=O)c1 (stereo partly drawn) [Compound I-50dj]	2450
O=C1CCC(N2Cc3cc(OC[C@H]4CCCCN4Cc4ccnc5[nH]ccc45)ccc3C2=O)C(=O)N1 (stereo partly drawn) [Compound I-50dk]	147
Cn1nc(CN2CCCC[C@@H]2COc2ccc3c(c2)CN(C2CCC(=O)NC2=O)C3=O)cc1-c1ccccc1 (stereo partly drawn) [Compound I-50dm]	7
N#Cc1cc(CN2CCCC[C@@H]2COc2ccc3c(c2)CN(C2CCC(=O)NC2=O)C3=O)ccn1 (stereo partly drawn) [Compound I-50dn]	> 25000
O=C1CCC(N2Cc3cc(OC[C@H]4CCCCN4Cc4cccc(N5CCCC5)c4)ccc3C2=O)C(=O)N1 (stereo partly drawn) [Compound I-50do]	2
O=C1CCC(N2Cc3cc(OC[C@H]4CCCCN4Cc4ccc[nH]c4=O)ccc3C2=O)C(=O)N1 (stereo partly drawn) [Compound I-50dp]	6840
O=C1CCC(N2Cc3cc(OC[C@H]4CCCCN4Cc4ccccc4OCC(=O)N4CCCCC4)ccc3C2=O)C(=O)N1 (stereo partly drawn) [Compound I-50dq]	770
O=C1CCC(N2Cc3cc(OC[C@H]4CCCCN4Cc4ccnc(N5CCOCC5)c4)ccc3C2=O)C(=O)N1 (stereo partly drawn) [Compound I-50dr]	97
O=C1CCC(N2Cc3cc(OC[C@H]4CCCCN4Cc4c[nH]cn4)ccc3C2=O)C(=O)N1 (stereo partly drawn) [Compound I-50ds]	3040
N#Cc1ccn2cc(CN3CCCC[C@@H]3COc3ccc4c(c3)CN(C3CCC(=O)NC3=O)C4=O)nc2c1 (stereo partly drawn) [Compound I-50dt]	2740
Cc1nc(-c2cccc(CN3CCCC[C@@H]3COc3ccc4c(c3)CN(C3CCC(=O)NC3=O)C4=O)c2)no1 (stereo partly drawn) [Compound I-50du]	4260

Same assay, conditions: read-out: WIZ AC50; WIZ HiBit assay in 293T cells; 10-point, 5-fold dose response, highest concentration 25 μM, about 18 hours

SMILES	DC50 [nM]
NS(=O)(=O)c1ccc(CN2CCCC[C@H]2COc2ccc3c(c2)CN(C2CCC(=O)NC2=O)C3=O)cc1 (stereo partly drawn) [Compound I-50de]	18400
